Values of other authors in patent US20060135507A1, “Therapeutic agent for overactive bladder involved in aging” (priority 2004, published 2006).

How the values were obtained:
[1] = test system: rat with overactive bladder caused by cerebrovascular disease
[2] = test system: human with overactive bladder caused by cerebrovascular disease

COc1ccc(C(=O)N2CCCC2=O)cc1 [Aniracetam]
micturition reflex [1]: suppression of micturition reflex is observed
micturition reflex [2]: suppression of micturition reflex is observed
